Read-outs that look alike come from different tables or passages of the source.
Experiments:
NCI-H460 = assay: SRB cell proliferation assay, NCI-H460; type: cell-based; conditions: Homo sapiens, 18-Cell Line Panel, NSCLC
Experimental: (§1) Cells were exposed to the test compounds at various concentrations appropriate to determine an IC50 for 72 hours. Cell proliferation was measured using the SRB assay according to Shekan et al (J Natl Cancer Inst (1990) 82, 1107-112) in order to estimate the IC50 values shown in Table 3. Briefly, cells were plated in 96 well dishes 24 hours prior to compound addition at the densities specified in Table 5.1. The assay was terminated with the addition of cold TCA to a final concentration of 10% after growth medium has been removed and the plates were incubated over night at 4°C. The plates were then washed 5 times with water and 100µl of a Sulforhodamine B solution (4%) was added to each well. The plates were then incubated for 10 minutes at room temperature before removal of unbound dye by washing with 1% acetic acid. The bound dye was solubilised with 10 mM Trizma base and the absorbance read at OD520.
(§2) Table 8.1: 18-Cell Line Panel

MDA-MB-468 = assay: SRB cell proliferation assay, MDA-MB-468; type: cell-based; conditions: Homo sapiens, MDA-MB-468; 18-Cell Line Panel; breast
Experimental: as §1, §2

OVCAR-3 = assay: SRB cell proliferation assay, OVCAR-3; type: cell-based; conditions: Homo sapiens, 18-Cell Line Panel, ovary
Experimental: as §1, §2

[1] = test system: Abl, Akt1, Aur A, c-Kit, c-Raf, Cdk1/CycB, Chk1, FGFR3, Flt3, Fyn, IGF1-R, INSR, Lyn, MAPK-ERK1, p38a, PAK4, PKCalpha, Ret, ROCK2, RSK 1, c-Src, TIE2, and …; assay: Selectivity panel (Proteros), 23 other kinases; type: biochemical; conditions: tested at 1 mM in triplicates; each of the 23 other kinases
Experimental: Selected compound of the present invention were tested in a standard selectivity panel including Plk1 and 23 other kinases (Proteros biostructures GmbH, Martinsried/Munich, Germany), under conditions of non-disclosure, non-dissemination and non-use.
In brief, compounds 1, 13, 14, and 25 (see Table 1) were tested at 1 mM in triplicates against Plk1 as well as against Abl, Akt1, Aur A, c-Kit, c-Raf, Cdk1/CycB, Chk1, FGFR3, Flt3, Fyn, IGF1-R, INSR, Lyn, MAPK-ERK1, p38a, PAK4, PKCalpha, Ret, ROCK2, RSK 1, c-Src, TIE2, and VEGF-R2.

SK-MEL-28 = assay: SRB cell proliferation assay, SK-MEL-28; type: cell-based; conditions: Homo sapiens, 18-Cell Line Panel, melanoma
Experimental: as §1, §2

SK-MEL-5 = assay: SRB cell proliferation assay, SK-MEL-5; type: cell-based; conditions: Homo sapiens, 18-Cell Line Panel, melanoma
Experimental: as §1, §2

A549 = assay: SRB cell proliferation assay, A549; type: cell-based; conditions: Homo sapiens, 18-Cell Line Panel, lung
Experimental: as §1, §2

HeLa = assay: SRB cell proliferation assay, HeLa; type: cell-based; conditions: Homo sapiens, 18-Cell Line Panel, cervix
Experimental: as §1, §2

MDA-MB-231 = assay: SRB cell proliferation assay, MDA-MB-231; type: cell-based; conditions: Homo sapiens, 18-Cell Line Panel, breast
Experimental: as §1, §2

Plk1 = Plk1 (Homo sapiens, UniProt P53350); assay: Select Screen Kinase Assay (Invitrogen Kinase Profiling Service); type: biochemical; conditions: tested at Invitrogen; read-out: IC50 values against Plk1 activity
Chain of Plk1 (P53350 whole entry, species assumed): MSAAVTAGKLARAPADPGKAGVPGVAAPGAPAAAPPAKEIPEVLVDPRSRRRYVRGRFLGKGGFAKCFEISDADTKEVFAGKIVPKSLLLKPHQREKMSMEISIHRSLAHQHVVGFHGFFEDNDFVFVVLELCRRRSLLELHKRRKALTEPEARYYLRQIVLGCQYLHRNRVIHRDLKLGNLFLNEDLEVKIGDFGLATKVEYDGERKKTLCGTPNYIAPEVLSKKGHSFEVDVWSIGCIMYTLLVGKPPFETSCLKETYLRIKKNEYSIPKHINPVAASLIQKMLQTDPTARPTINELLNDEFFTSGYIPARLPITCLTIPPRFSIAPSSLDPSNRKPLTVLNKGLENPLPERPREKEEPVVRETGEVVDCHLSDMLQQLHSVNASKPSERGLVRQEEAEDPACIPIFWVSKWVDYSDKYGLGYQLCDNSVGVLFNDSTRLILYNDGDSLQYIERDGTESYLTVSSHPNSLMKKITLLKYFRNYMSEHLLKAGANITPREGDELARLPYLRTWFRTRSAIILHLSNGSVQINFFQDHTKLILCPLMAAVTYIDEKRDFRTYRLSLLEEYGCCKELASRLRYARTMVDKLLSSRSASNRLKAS
Experimental: Selected compound of the present invention were tested in the Select Screen™ Kinase Profiling Service (Invitrogen Corporation, Madison, WI 53719, USA) against Plk1, under conditions of non-disclosure, non-dissemination and non-use.
In brief, compounds 1 and 13 (see Table 1) were tested at Invitrogen, and IC50 values against Plk1 activity of about 20 nM were obtained in each case.

A-431 = assay: SRB cell proliferation assay, A-431; type: cell-based; conditions: Homo sapiens, 18-Cell Line Panel, skin
Experimental: as §1, §2

IMR-90 = assay: SRB cell proliferation assay, IMR-90; type: cell-based; conditions: Homo sapiens
Method in brief: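 Cells plated 24 h before compound, then exposed 72 h over a concentration range. TCA-fixed, sulforhodamine B-stained, bound dye read at OD520; IC50 derived from % inhibition of proliferation versus DMSO-treated cells.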

[2] = 18-Cell Line Panel, lung, read-out: IC50 IMR-90
[3] = 72 hours, SRB assay, slow cycling cell line, read-out: CELLULAR IC50 IMR-90

Row | IC50 (NCI-H460) | IC50 (MDA-MB-468) | IC50 (OVCAR-3) | IC50 (SK-MEL-28) | IC50 (SK-MEL-5) | IC50 (A549) | IC50 (HeLa) | IC50 (MDA-MB-231) | IC50 (Plk1) | IC50 (A-431) | SMILES | all other kinases were inhibited [1] | IC50 (IMR-90; [2]) | IC50 (IMR-90; [3])
1 | < 1000 nM | > 1000 nM | < 1000 nM | > 1000 nM | < 1000 nM | < 1000 nM | < 1000 nM | < 1000 nM | ~20 nM | < 1000 nM | CCC1C(=O)N(C)c2cnc(Nc3ccc(C(=O)N[C@H]4CC[C@H](N5CCN(CC6CC6)CC5)CC4)cc3OC)nc2N1N(C)C (relative stereo) [Compound 13, N-[trans-4-(4-Cyclopropylmethyl-piperazin-1-yl)-cyclohexyl]-4-(8-dimethylamino-7-ethyl-5-methyl-6-oxo-5,6,7,8-tetrahydro-pteridin-2-ylamino)-3-methoxy-benzamide] | less than 10% | > 1000 nM | > 1000 nM
2 | < 1000 nM | < 1000 nM | < 1000 nM | > 1000 nM | < 1000 nM | < 1000 nM | < 1000 nM | > 1000 nM | ~20 nM | < 1000 nM | CCC1C(=O)N(C)c2cnc(Nc3ccc(C(=O)NC4CCN(C)CC4)cc3OC)nc2N1N(C)C (racemic) [Compound 1, 4-(8-Dimethylamino-7-ethyl-5-methyl-6-oxo-5,6,7,8-tetrahydro-pteridin-2-ylamino)-3-methoxy-N-(1-methyl-piperidin-4-yl)-benzamide] | less than 10% | > 1000 nM | > 1000 nM
